# Results taken from patent publication US20060069038A1, “Irreversible caspase-3 inhibitors as active site probes” (priority 2003, published 2006).
# System: active caspases
# Experiment: In vivo labeling of active caspases with [125I]-M808 in CLP-operated mice (thymi extracts)
# Set-up: species or system mouse
# Settings: i.v. injection in CLP mice, radiolabeled p17 in thymi, FIG. 6
# Experimental: FIG. 6. A-Schematic representation of in vivo labeling of active caspases with [^125I]-M808 in CLP-operated mice. Mice underwent either sham surgery (n=2) or CLP surgery (n=5). [^125I]-M808 was injected intravenously 23.15 h later, and animals were euthanized 24 h post-surgery. B-Caspase-3 western blot of mouse thymi extracts following CLP and administration of [^125I]-M808. Arrows indicate full length pro-caspase-3 (p32) and the processed caspase large subunit (p17). C— in-vivo [^125I]-M808-labeled protein in thymi extracts from septic mice. Arrow points to a radiolabeled caspase large subunit.
# Female Sprague-Dawley rats (250-300 g; Charles River, St-Constant, Qc, Canada) and ND4 mice (20-25 g Harlane Sprague-Dawley) were housed in a 12 hour light/dark cycle with free access to food and water. All procedures were carried out under appropriate Animal Care Committee approval in strict accordance to Merck and Co. animal care policies. For Cecal Ligation and Perforation, animals were anesthetized with 2.5% isoflurane and body temperature maintained by use of a thermoregulated heated blanket. A midline incision was made in the abdominal wall of the animal and the cecum exteriorized. The cecum was ligated with a nylon (4-0) suture proximal to the ileocecal valve. In mice, perforation of the cecum was done using a 23 g needle passed through the distal portion of the cecum. […]
smiles,measurement,value
"COc1ccc(I)cc1CC(=O)N[C@H](C(=O)NC(CC(=O)O)C(=O)CF)C(C)C (stereo partly drawn) [[^125I]-M808, 5-fluoro-3-({N-[(5-iodo-2-methoxyphenyl)acetyl]-L-valyl}amino)-4-oxopentanoic acid]",detection of active caspases in vivo,can detect active caspases in vivo
